According to the NIST ThermoML archive (doi:10.1021/acs.jced.5b01023):
± gives the expanded uncertainty stated by the source.

Test: xn = mol fraction of the nth substance listed
Settings: for surface tension liquid-gas: Wilhelmy plates; for viscosity / mass density: 101 kPa, Liquid; for viscosity: Capillary tube (Ostwald / Ubbelohde) method; for mass density: Vibrating tube method

CC(=O)[O-].CCn1cc[n+](C)c1 [1-ethyl-3-methylimidazolium acetate] + CCCO
Settings | mass density [kg/m3] | surface tension liquid-gas [mN/m] | viscosity [mPa·s]
288.15 K, x1 = 0.1017 | 869.4 ± 0.16 | 25.8 ± 0.6 | 4.866 ± 0.057
288.15 K, x1 = 0.2004 | 915.48 ± 0.16 | 27.4 ± 0.6 | 7.99 ± 0.093
288.15 K, x1 = 0.3001 | 953.82 ± 0.18 | 29.7 ± 0.6 | 13.36 ± 0.16
288.15 K, x1 = 0.3998 | 986.05 ± 0.24 | 31.7 ± 0.6 | 22.26 ± 0.27
288.15 K, x1 = 0.4997 | 1013.52 ± 0.34 | 33.7 ± 0.6 | 36.38 ± 0.46
288.15 K, x1 = 0.5996 | 1037.16 ± 0.48 | 35.6 ± 0.6 | 57.47 ± 0.73
288.15 K, x1 = 0.6998 | 1057.65 ± 0.66 | 37.7 ± 0.7 | 90.15 ± 1.4
288.15 K, x1 = 0.8002 | 1075.6 ± 0.86 | 40.2 ± 0.7 | 135 ± 2.8
288.15 K, x1 = 0.8991 | 1090.97 ± 1.1 | 43.2 ± 0.7 | 196.8 ± 5.1
288.15 K, x1 = 1 | 1105.2 ± 1.4 | 47.7 ± 0.8 | 283.8 ± 8.9
298.15 K, x1 = 0.1017 | 862.03 ± 0.17 | 25.2 ± 0.6 | 3.822 ± 0.044
298.15 K, x1 = 0.2004 | 908.4 ± 0.16 | 26.5 ± 0.6 | 6.163 ± 0.072
298.15 K, x1 = 0.3001 | 946.94 ± 0.18 | 29.2 ± 0.6 | 9.963 ± 0.12
298.15 K, x1 = 0.3998 | 979.34 ± 0.24 | 31 ± 0.6 | 15.81 ± 0.19
298.15 K, x1 = 0.4997 | 1006.95 ± 0.33 | 33.1 ± 0.6 | 24.44 ± 0.31
298.15 K, x1 = 0.5996 | 1030.7 ± 0.48 | 34.7 ± 0.6 | 36.48 ± 0.48
298.15 K, x1 = 0.6998 | 1051.29 ± 0.65 | 37.2 ± 0.7 | 53.65 ± 0.72
298.15 K, x1 = 0.8002 | 1069.33 ± 0.85 | 39.7 ± 0.7 | 75.63 ± 1.2
298.15 K, x1 = 0.8991 | 1084.89 ± 1.1 | 42.7 ± 0.7 | 103.9 ± 2
298.15 K, x1 = 1 | 1099.03 ± 1.4 | 47.1 ± 0.8 | 139 ± 3.1
308.15 K, x1 = 0.1017 | 854.63 ± 0.17 | 24.7 ± 0.6 | 3.038 ± 0.035
308.15 K, x1 = 0.2004 | 901.33 ± 0.16 | 25.8 ± 0.6 | 4.878 ± 0.057
308.15 K, x1 = 0.3001 | 940.1 ± 0.19 | 28.7 ± 0.6 | 7.657 ± 0.09
308.15 K, x1 = 0.3998 | 972.66 ± 0.24 | 30.7 ± 0.6 | 11.7 ± 0.14
308.15 K, x1 = 0.4997 | 1000.41 ± 0.33 | 32.7 ± 0.6 | 17.3 ± 0.22
308.15 K, x1 = 0.5996 | 1024.28 ± 0.47 | 34.2 ± 0.6 | 24.75 ± 0.32
308.15 K, x1 = 0.6998 | 1044.96 ± 0.64 | 36.6 ± 0.7 | 34.59 ± 0.47
308.15 K, x1 = 0.8002 | 1063.09 ± 0.84 | 39.2 ± 0.7 | 46.49 ± 0.66
308.15 K, x1 = 0.8991 | 1078.75 ± 1.1 | 42.2 ± 0.7 | 60.98 ± 0.91
308.15 K, x1 = 1 | 1092.93 ± 1.3 | 46.6 ± 0.8 | 77.32 ± 1.3
318.15 K, x1 = 0.1017 | 847.19 ± 0.17 | 23.9 ± 0.6 | 2.461 ± 0.029
318.15 K, x1 = 0.2004 | 894.27 ± 0.16 | 25.3 ± 0.6 | 3.952 ± 0.046
318.15 K, x1 = 0.3001 | 933.29 ± 0.19 | 28.5 ± 0.6 | 6.043 ± 0.071
318.15 K, x1 = 0.3998 | 966.03 ± 0.24 | 30.2 ± 0.6 | 8.961 ± 0.11
318.15 K, x1 = 0.4997 | 993.92 ± 0.33 | 32.2 ± 0.6 | 12.78 ± 0.16
318.15 K, x1 = 0.5996 | 1017.9 ± 0.46 | 33.3 ± 0.6 | 17.58 ± 0.23
318.15 K, x1 = 0.6998 | 1038.68 ± 0.63 | 36.1 ± 0.7 | 23.68 ± 0.32
318.15 K, x1 = 0.8002 | 1056.89 ± 0.83 | 38.8 ± 0.7 | 30.86 ± 0.43
318.15 K, x1 = 0.8991 | 1072.62 ± 1.1 | 41.8 ± 0.7 | 37.98 ± 0.56
318.15 K, x1 = 1 | 1086.86 ± 1.3 | 46.1 ± 0.8 | 47.37 ± 0.73
328.15 K, x1 = 0.1017 | 839.68 ± 0.18 | 23 ± 0.6 | 2.018 ± 0.023
328.15 K, x1 = 0.2004 | 887.21 ± 0.17 | 25 ± 0.6 | 3.268 ± 0.038
328.15 K, x1 = 0.3001 | 926.51 ± 0.19 | 27.9 ± 0.6 | 4.878 ± 0.058
328.15 K, x1 = 0.3998 | 959.44 ± 0.24 | 30 ± 0.6 | 7.05 ± 0.085
328.15 K, x1 = 0.4997 | 987.48 ± 0.32 | 31.7 ± 0.6 | 9.766 ± 0.12
328.15 K, x1 = 0.5996 | 1011.58 ± 0.45 | 33.1 ± 0.6 | 13.01 ± 0.17
328.15 K, x1 = 0.6998 | 1032.45 ± 0.62 | 35.8 ± 0.7 | 17.05 ± 0.23
328.15 K, x1 = 0.8002 | 1050.74 ± 0.82 | 38.1 ± 0.7 | 21.36 ± 0.3
328.15 K, x1 = 0.8991 | 1066.53 ± 1 | 41.4 ± 0.7 | 25.84 ± 0.38
328.15 K, x1 = 1 | 1080.82 ± 1.3 | 45.9 ± 0.8 | 31.29 ± 0.48
338.15 K, x1 = 0.1017 | 832.08 ± 0.18 | 22.3 ± 0.6 | 1.68 ± 0.02
338.15 K, x1 = 0.2004 | 880.13 ± 0.17 | 24 ± 0.6 | 2.686 ± 0.031
338.15 K, x1 = 0.3001 | 919.75 ± 0.19 | 27.3 ± 0.6 | 3.946 ± 0.047
338.15 K, x1 = 0.3998 | 952.89 ± 0.24 | 29.5 ± 0.6 | 5.672 ± 0.069
338.15 K, x1 = 0.4997 | 981.08 ± 0.32 | 31.3 ± 0.6 | 7.675 ± 0.095
338.15 K, x1 = 0.5996 | 1005.3 ± 0.44 | 32.6 ± 0.6 | 9.978 ± 0.13
338.15 K, x1 = 0.6998 | 1026.26 ± 0.61 | 35.5 ± 0.7 | 12.68 ± 0.17
338.15 K, x1 = 0.8002 | 1044.63 ± 0.8 | 37.9 ± 0.7 | 15.57 ± 0.22
338.15 K, x1 = 0.8991 | 1060.48 ± 1 | 41.2 ± 0.7 | 18.49 ± 0.27
338.15 K, x1 = 1 | 1074.83 ± 1.3 | 45.4 ± 0.8 | 21.85 ± 0.33
348.15 K, x1 = 0.1017 | 824.34 ± 0.18 | 21.5 ± 0.6 | 1.413 ± 0.016
348.15 K, x1 = 0.2004 | 873.02 ± 0.17 | 23.6 ± 0.6 | 2.26 ± 0.026
348.15 K, x1 = 0.3001 | 912.99 ± 0.19 | 27.1 ± 0.6 | 3.292 ± 0.039
348.15 K, x1 = 0.3998 | 946.36 ± 0.24 | 29.3 ± 0.6 | 4.651 ± 0.057
348.15 K, x1 = 0.4997 | 974.71 ± 0.32 | 30.8 ± 0.6 | 6.175 ± 0.077
348.15 K, x1 = 0.5996 | 999.06 ± 0.44 | 31.8 ± 0.6 | 7.866 ± 0.1
348.15 K, x1 = 0.6998 | 1020.12 ± 0.6 | 34.5 ± 0.7 | 9.81 ± 0.13
348.15 K, x1 = 0.8002 | 1038.57 ± 0.79 | 37.6 ± 0.7 | 11.81 ± 0.16
348.15 K, x1 = 0.8991 | 1054.49 ± 1 | 41 ± 0.7 | 13.78 ± 0.2
348.15 K, x1 = 1 | 1068.88 ± 1.3 | 45.1 ± 0.8 | 16.01 ± 0.24
